Experimental data reported in article PMC5436585 (ACS chemical biology, 2016).

Target: T1, SltB3 (Pseudomonas aeruginosa, UniProt Q9HX28)
T1 sequence (Q9HX28 33-448): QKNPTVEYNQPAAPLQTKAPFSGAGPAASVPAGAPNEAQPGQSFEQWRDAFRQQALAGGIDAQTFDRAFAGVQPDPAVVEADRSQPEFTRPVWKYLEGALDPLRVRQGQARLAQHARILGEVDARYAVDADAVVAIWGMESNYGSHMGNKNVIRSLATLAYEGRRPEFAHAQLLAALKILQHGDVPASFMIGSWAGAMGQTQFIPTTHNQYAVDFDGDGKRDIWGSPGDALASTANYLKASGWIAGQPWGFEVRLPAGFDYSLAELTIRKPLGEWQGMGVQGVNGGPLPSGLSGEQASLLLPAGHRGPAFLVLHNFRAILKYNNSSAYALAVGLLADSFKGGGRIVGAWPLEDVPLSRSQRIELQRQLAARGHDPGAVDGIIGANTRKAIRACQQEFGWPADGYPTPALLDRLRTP
Test: LC/MS product quantification, nonlinear regression
Type: biochemical
Conditions: 20 mM HEPES, 0.1 M NaCl, 0.1% Triton X, pH 7.0, 25 °C; 8 nM enzyme

CO[C@@H]1O[C@H](CO)[C@@H](O[C@@H]2O[C@H](CO)[C@@H](O[C@@H]3O[C@H](CO)[C@@H](O[C@@H]4O[C@H](CO)[C@@H](O)[C@H](O)[C@H]4NC(C)=O)[C@H](O[C@H](C)C(=O)N[C@@H](C)C(=O)N[C@H](CCC(=O)N[C@@H](CCC[C@@H](N)C(=O)O)C(=O)N[C@H](C)C(=O)N[C@H](C)C(=O)O)C(=O)O)[C@H]3NC(C)=O)[C@H](O)[C@H]2NC(C)=O)[C@H](O[C@H](C)C(=O)N[C@@H](C)C(=O)N[C@H](CCC(=O)N[C@@H](CCC[C@@H](N)C(=O)O)C(=O)N[C@H](C)C(=O)N[C@H](C)C(=O)O)C(=O)O)[C@H]1NC(C)=O [compound 1]
Km: 200 ± 20 µM
